Test results: ChEMBL document CHEMBL1201862, “PubChem BioAssay data set” (2004)
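Method: 48-hour compound exposure of cells in 96-well plates, five concentrations, linear interpolation of endpoints. GI50: concentration for 50% inhibition of growth.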 Activity calls are given as the source filed them. Rule as the data show it: active = GI50 up to about 1.1 µM and inactive = higher.

Key:
Assay in all cases: NCI-60 cell line screen, 48 h
786-0 = tested on: 786-0
A498 = tested on: A498
A549 = tested on: A549
ACHN = tested on: ACHN
BT-549 = tested on: BT-549
CAKI-1 = tested on: CAKI-1
CCRF-CEM = tested on: CCRF-CEM
COLO 205 = tested on: COLO 205
DU-145 = tested on: DU-145
EKVX = tested on: EKVX
HCC 2998 = tested on: HCC 2998
HCT-116 = tested on: HCT-116
HCT-15 = tested on: HCT-15
HL-60 = tested on: HL-60
HOP-62 = tested on: HOP-62
HT-29 = tested on: HT-29
Hs-578T = tested on: Hs-578T
IGROV-1 = tested on: IGROV-1
K562 = tested on: K562
KM12 = tested on: KM12
LOX IMVI = tested on: LOX IMVI
M14 = tested on: M14
MCF7 = tested on: MCF7
MDA-MB-231 = tested on: MDA-MB-231
MDA-MB-435 = tested on: MDA-MB-435
MDA-N = tested on: MDA-N
MOLT-4 = tested on: MOLT-4
Malme-3M = tested on: Malme-3M
NCI-H226 = tested on: NCI-H226
NCI-H23 = tested on: NCI-H23
NCI-H460 = tested on: NCI-H460
NCI-H522 = tested on: NCI-H522
NCI/ADR-RES = tested on: NCI/ADR-RES
OVCAR-3 = tested on: OVCAR-3
OVCAR-4 = tested on: OVCAR-4
OVCAR-5 = tested on: OVCAR-5
OVCAR-8 = tested on: OVCAR-8
PC-3 = tested on: PC-3
RPMI-8226 = tested on: RPMI-8226
SF-268 = tested on: SF-268
SF-295 = tested on: SF-295
SF-539 = tested on: SF-539
SK-MEL-28 = tested on: SK-MEL-28
SK-MEL-2 = tested on: SK-MEL-2
SK-MEL-5 = tested on: SK-MEL-5
SK-OV-3 = tested on: SK-OV-3
SN12C = tested on: SN12C
SNB-19 = tested on: SNB-19
SNB-75 = tested on: SNB-75
SR = tested on: SR
SW-620 = tested on: SW-620
T47D = tested on: T47D
TK-10 = tested on: TK-10
U-251 = tested on: U-251
UACC-257 = tested on: UACC-257
UACC-62 = tested on: UACC-62
UO-31 = tested on: UO-31
HOP-92 = tested on: HOP-92
RXF 393 = tested on: RXF 393

COC(=O)c1cc2c(cc1CC1Cc3cc4c(cc3C1=O)CCC4)CCC2 (stereo not drawn)
GI50 (786-0): 83.8 µM (inactive)
GI50 (A498): 56 µM (inactive)
GI50 (A549): 40.3 µM (inactive)
GI50 (ACHN): > 100 µM (inactive)
GI50 (BT-549): 40.1 µM (inactive)
GI50 (CAKI-1): > 100 µM (inactive)
GI50 (CCRF-CEM): 21.5 µM (inactive)
GI50 (COLO 205): 33.3 µM (inactive)
GI50 (DU-145): > 100 µM (inactive)
GI50 (EKVX): 67.5 µM (inactive)
GI50 (HCC 2998): 43.7 µM (inactive)
GI50 (HCT-116): 33.4 µM (inactive)
GI50 (HCT-15): 36.3 µM
GI50 (HL-60): > 100 µM (inactive)
GI50 (HOP-62): > 100 µM (inactive)
GI50 (HT-29): 31.7 µM (inactive)
GI50 (Hs-578T): 15 µM (inactive)
GI50 (IGROV-1): 97.5 µM (inactive)
GI50 (K562): 20.2 µM (inactive)
GI50 (KM12): 32.4 µM (inactive)
GI50 (LOX IMVI): 41.4 µM (inactive)
GI50 (M14): 66.8 µM (inactive)
GI50 (MCF7): 34 µM (inactive)
GI50 (MDA-MB-231): 53.8 µM (inactive)
GI50 (MDA-MB-435): 24.7 µM (inactive)
GI50 (MDA-N): 18.2 µM (inactive)
GI50 (MOLT-4): 13.5 µM (inactive)
GI50 (Malme-3M): 53 µM (inactive)
GI50 (NCI-H226): 56.6 µM (inactive)
GI50 (NCI-H23): 41.6 µM (inactive)
GI50 (NCI-H460): 40 µM (inactive)
GI50 (NCI-H522): 34.1 µM (inactive)
GI50 (NCI/ADR-RES): 38.1 µM (inactive)
GI50 (OVCAR-3): 57.4 µM (inactive)
GI50 (OVCAR-4): 50.4 µM (inactive)
GI50 (OVCAR-5): > 100 µM (inactive)
GI50 (OVCAR-8): 74 µM (inactive)
GI50 (PC-3): 10.7 µM (inactive)
GI50 (RPMI-8226): 25 µM (inactive)
GI50 (SF-268): > 100 µM (inactive)
GI50 (SF-295): 30.7 µM (inactive)
GI50 (SF-539): 58.9 µM (inactive)
GI50 (SK-MEL-28): 76 µM (inactive)
GI50 (SK-MEL-2): 36.4 µM (inactive)
GI50 (SK-MEL-5): 17.6 µM (inactive)
GI50 (SK-OV-3): 70.3 µM (inactive)
GI50 (SN12C): 57.5 µM (inactive)
GI50 (SNB-19): > 100 µM (inactive)
GI50 (SNB-75): 54.1 µM (inactive)
GI50 (SR): 45.4 µM (inactive)
GI50 (SW-620): 29.4 µM (inactive)
GI50 (T47D): 24.9 µM (inactive)
GI50 (TK-10): 73.1 µM (inactive)
GI50 (U-251): 46 µM (inactive)
GI50 (UACC-257): 39.1 µM (inactive)
GI50 (UACC-62): 47.2 µM (inactive)
GI50 (UO-31): > 100 µM (inactive)

Clc1ccc(Cc2nc3ccccc3nc2-c2cccc(Cl)c2)cc1
GI50 (786-0): 1.84 µM (inactive)
GI50 (A549): 15.6 µM (inactive)
GI50 (ACHN): 1.93 µM (inactive)
GI50 (BT-549): 4.49 µM (inactive)
GI50 (CAKI-1): 2.73 µM (inactive)
GI50 (CCRF-CEM): 0.0311 µM (active)
GI50 (COLO 205): 2.8 µM (inactive)
GI50 (DU-145): 14.2 µM (inactive)
GI50 (EKVX): 17.5 µM (inactive)
GI50 (HCC 2998): 1.85 µM (inactive)
GI50 (HCT-116): 1.72 µM (inactive)
GI50 (HCT-15): 1.66 µM
GI50 (HL-60): 2.51 µM (inactive)
GI50 (HOP-62): 17.8 µM (inactive)
GI50 (HOP-92): 1.7 µM (inactive)
GI50 (HT-29): 2.61 µM (inactive)
GI50 (Hs-578T): 3.47 µM (inactive)
GI50 (IGROV-1): 1.95 µM (inactive)
GI50 (K562): 1.94 µM (inactive)
GI50 (KM12): 3.48 µM (inactive)
GI50 (LOX IMVI): 1.95 µM (inactive)
GI50 (M14): 2.43 µM (inactive)
GI50 (MCF7): 2.92 µM (inactive)
GI50 (MDA-MB-231): 2.47 µM (inactive)
GI50 (MDA-MB-435): 1.95 µM (inactive)
GI50 (MDA-N): 2.28 µM (inactive)
GI50 (MOLT-4): 2.06 µM (inactive)
GI50 (Malme-3M): 2.25 µM (inactive)
GI50 (NCI-H226): 20.3 µM (inactive)
GI50 (NCI-H23): 13.5 µM (inactive)
GI50 (NCI-H460): 16.3 µM (inactive)
GI50 (NCI-H522): 1.61 µM (inactive)
GI50 (NCI/ADR-RES): 3.1 µM (inactive)
GI50 (OVCAR-3): 4.21 µM (inactive)
GI50 (OVCAR-4): 1.51 µM (inactive)
GI50 (OVCAR-5): 7.38 µM (inactive)
GI50 (OVCAR-8): 3.56 µM (inactive)
GI50 (PC-3): 2.26 µM (inactive)
GI50 (RPMI-8226): 0.405 µM (active)
GI50 (RXF 393): 2.04 µM (inactive)
GI50 (SF-268): 18.3 µM (inactive)
GI50 (SF-295): 17.1 µM (inactive)
GI50 (SF-539): 2.25 µM (inactive)
GI50 (SK-MEL-2): 3.24 µM (inactive)
GI50 (SK-MEL-5): 4.91 µM (inactive)
GI50 (SK-OV-3): 17.2 µM (inactive)
GI50 (SN12C): 2.94 µM (inactive)
GI50 (SNB-19): 1.8 µM (inactive)
GI50 (SR): 1.54 µM (inactive)
GI50 (SW-620): 1.61 µM (inactive)
GI50 (T47D): 3.35 µM (inactive)
GI50 (TK-10): 12.3 µM (inactive)
GI50 (U-251): 4.68 µM (inactive)
GI50 (UACC-257): 13.8 µM (inactive)
GI50 (UACC-62): 1.86 µM (inactive)
GI50 (UO-31): 1.78 µM (inactive)
